Experimental data: patent publication US7396837B2, “Antitumoral analogs of lamellarins” (Pharma Mar, S.A.U., priority 2002, dated 2008)
Like-named read-outs stand apart in the source and are kept apart here.

How the values were obtained:
LNCaP = assay: SRB colorimetric cell growth inhibition assay, LNCaP; type: cell-based; conditions: Homo sapiens, LNCaP, LN-caP; for GI50: GI=growth inhibition, read-out: GI50 LN-caP; for CC50: read-out: LC50 LN-caP; for IC (TGI): read-out: TGI LN-caP
Summary of the method: (§1)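 Sulforhodamine B colorimetric readout measured cell growth and viability after continuous compound exposure of human cancer cell lines in 96-well plates. Triplicate wells gave mean ± SD, from which growth inhibition (GI), cytostatic total growth inhibition (TGI) and cytotoxic cell killing (LC) were calculated.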

LoVo-Dox = assay: SRB colorimetric cell growth inhibition assay, LoVo-Dox (MDR); type: cell-based; conditions: Homo sapiens, LOVO-DOX; for GI50: GI=growth inhibition, read-out: GI50 LOVO-DOX; for CC50: read-out: LC50 LOVO-DOX; for IC (TGI): read-out: TGI LOVO-DOX
Summary of the method: as §1

A-549 = assay: SRB colorimetric cell growth inhibition assay, A-549; type: cell-based; conditions: Homo sapiens, A549, A-549; for GI50: GI=growth inhibition, read-out: GI50 A-549; for CC50: read-out: LC50 A-549; for IC (TGI): read-out: TGI A-549
Summary of the method: as §1

DU-145 = assay: SRB colorimetric cell growth inhibition assay, DU-145; type: cell-based; conditions: Homo sapiens, DU-145, DU-145; for GI50: GI=growth inhibition, read-out: GI50 DU-145; for CC50: read-out: LC50 DU-145; for IC (TGI): read-out: TGI DU-145
Summary of the method: as §1

PANC-1 = assay: SRB colorimetric cell growth inhibition assay, PANC-1; type: cell-based; conditions: Homo sapiens, PANC-1, PANC-1; for GI50: GI=growth inhibition, read-out: GI50 PANC-1; for CC50: read-out: LC50 PANC-1; for IC (TGI): read-out: TGI PANC-1
Summary of the method: as §1

SK-MEL-28 = assay: SRB colorimetric cell growth inhibition assay, SK-MEL-28; type: cell-based; conditions: Homo sapiens, SK-MEL-28, MEL-28; for GI50: GI=growth inhibition, read-out: GI50 MEL-28; for CC50: read-out: LC50 MEL-28; for IC (TGI): read-out: TGI MEL-28
Summary of the method: as §1

SK-BR-3 = assay: SRB colorimetric cell growth inhibition assay, SK-BR-3; type: cell-based; conditions: Homo sapiens, SK-BR-3, SK-BR-3; for GI50: GI=growth inhibition, read-out: GI50 SK-BR-3; for CC50: read-out: LC50 SK-BR-3; for IC (TGI): read-out: TGI SK-BR-3
Summary of the method: as §1

K-562 = assay: SRB colorimetric cell growth inhibition assay, K-562; type: cell-based; conditions: Homo sapiens, K562, K-562; for GI50: GI=growth inhibition, read-out: GI50 K-562; for CC50: read-out: LC50 K-562; for IC (TGI): read-out: TGI K-562
Summary of the method: as §1

IGROV-ET = assay: SRB colorimetric cell growth inhibition assay, IGROV-ET (ET-743 resistant); type: cell-based; conditions: Homo sapiens, IGROV-ET; for GI50: GI=growth inhibition, read-out: GI50 IGROV-ET; for CC50: read-out: LC50 IGROV-ET; for IC (TGI): read-out: TGI IGROV-ET
Summary of the method: as §1

IGROV = assay: SRB colorimetric cell growth inhibition assay, IGROV; type: cell-based; conditions: Homo sapiens, IGROV; for GI50: GI=growth inhibition, read-out: GI50 IGROV; for CC50: read-out: LC50 IGROV; for IC (TGI): read-out: TGI IGROV
Summary of the method: as §1

HT-29 = assay: SRB colorimetric cell growth inhibition assay, HT-29; type: cell-based; conditions: Homo sapiens, HT-29, HT-29; for GI50: GI=growth inhibition, read-out: GI50 HT-29; for CC50: read-out: LC50 HT-29; for IC (TGI): read-out: TGI HT-29
Summary of the method: as §1

LoVo = assay: SRB colorimetric cell growth inhibition assay, LoVo; type: cell-based; conditions: Homo sapiens, LoVo; for GI50: GI=growth inhibition, read-out: GI50 LOVO; for CC50: read-out: LC50 LOVO; for IC (TGI): read-out: TGI LOVO
Summary of the method: as §1

human topoisomerase I = target: T1, human topoisomerase I (Homo sapiens, UniProt P11387); assay: Topoisomerase I DNA relaxation assay (supercoiled plasmid DNA); type: biochemical; conditions: for stimulation of DNA cleavage by topoisomerase I / inhibition of topoisomerase I (nicked DNA band) in DNA relaxation assay: supercoiled plasmid DNA, each compound tested at 1 μM, agarose gel with ethidium bromide
T1 sequence (P11387 1-765): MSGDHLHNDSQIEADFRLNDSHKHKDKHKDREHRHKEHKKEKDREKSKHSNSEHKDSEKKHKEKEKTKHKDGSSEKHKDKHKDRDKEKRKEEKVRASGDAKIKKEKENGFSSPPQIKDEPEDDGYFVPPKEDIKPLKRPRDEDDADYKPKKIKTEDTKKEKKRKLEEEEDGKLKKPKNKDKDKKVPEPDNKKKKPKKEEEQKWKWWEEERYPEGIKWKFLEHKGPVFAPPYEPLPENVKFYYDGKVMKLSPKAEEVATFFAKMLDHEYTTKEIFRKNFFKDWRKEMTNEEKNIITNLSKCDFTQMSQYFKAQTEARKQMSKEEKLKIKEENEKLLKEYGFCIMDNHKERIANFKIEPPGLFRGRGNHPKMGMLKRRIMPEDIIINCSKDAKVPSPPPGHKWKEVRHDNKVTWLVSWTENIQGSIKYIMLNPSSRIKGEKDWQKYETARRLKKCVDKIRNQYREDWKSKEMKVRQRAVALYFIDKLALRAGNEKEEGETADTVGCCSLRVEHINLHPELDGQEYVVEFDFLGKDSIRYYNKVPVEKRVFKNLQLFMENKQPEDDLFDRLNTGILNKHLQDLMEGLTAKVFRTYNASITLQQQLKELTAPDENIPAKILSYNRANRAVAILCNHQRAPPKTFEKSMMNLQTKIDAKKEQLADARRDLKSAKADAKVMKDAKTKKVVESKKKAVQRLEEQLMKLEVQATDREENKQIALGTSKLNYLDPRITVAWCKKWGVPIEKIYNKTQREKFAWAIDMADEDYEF
Summary of the method: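 Test compounds (1 μM each) were present during topoisomerase I relaxation of supercoiled plasmid DNA. Relaxation was assessed on ethidium bromide-stained agarose gels.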

[1] = LC=cell killing (cytotoxic effect)
[2] = TGI=total growth inhibition (cytostatic effect)
[3] = cell killing (cytotoxic effect)
[4] = total growth inhibition (cytostatic effect)

COc1cc(-c2c3c4cc(OC)c(OC(=O)[C@H](C)N)cc4oc(=O)c3n3ccc4cc(OC(=O)[C@H](C)N)c(OC)cc4c23)ccc1OC(=O)[C@H](C)N [Compound 40]
GI50 (LNCaP): 0.13 µM | CC50 (LNCaP; [1]): 4.38 µM | IC (TGI) (LNCaP; [2]): 0.447 µM | GI50 (LoVo-Dox): 0.47 µM | CC50 (LoVo-Dox; [1]): 9.48 µM | IC (TGI) (LoVo-Dox; [2]): 3.35 µM | GI50 (A-549): 0.0316 µM | CC50 (A-549; [1]): 9.48 µM | IC (TGI) (A-549; [2]): 0.27 µM | GI50 (DU-145): 0.0162 µM | CC50 (DU-145; [1]): 9.48 µM | IC (TGI) (DU-145; [2]): 0.094 µM | GI50 (PANC-1): 0.254 µM | CC50 (PANC-1; [1]): 9.48 µM | IC (TGI) (PANC-1; [2]): 3.27 µM | GI50 (SK-MEL-28): 0.0412 µM | CC50 (SK-MEL-28; [1]): 9.48 µM | IC (TGI) (SK-MEL-28; [2]): 0.595 µM | GI50 (SK-BR-3): 0.816 µM | CC50 (SK-BR-3; [1]): 9.48 µM | IC (TGI) (SK-BR-3; [2]): 3.25 µM | GI50 (K-562): 0.0582 µM | CC50 (K-562; [1]): 4.61 µM | IC (TGI) (K-562; [2]): 0.986 µM | GI50 (IGROV-ET): 0.0852 µM | CC50 (IGROV-ET; [1]): 9.48 µM | IC (TGI) (IGROV-ET; [2]): 0.557 µM | GI50 (IGROV): 0.0449 µM | CC50 (IGROV; [1]): 5.04 µM | IC (TGI) (IGROV; [2]): 0.391 µM | GI50 (HT-29): 3.57 µM | CC50 (HT-29; [1]): 9.48 µM | IC (TGI) (HT-29; [2]): 9.48 µM | GI50 (LoVo): 0.223 µM | CC50 (LoVo; [1]): 6.41 µM | IC (TGI) (LoVo; [2]): 0.884 µM | stimulation of DNA cleavage by topoisomerase I / inhibition of topoisomerase I (nicked DNA band) in DNA relaxation assay (human topoisomerase I): marked inhibition of topoisomerase I

COc1cc(-c2c3c4cc(OC)c(OC(=O)[C@@H](N)CC(C)C)cc4oc(=O)c3n3ccc4cc(OC(=O)[C@@H](N)CC(C)C)c(OC)cc4c23)ccc1OC(=O)[C@@H](N)CC(C)C [Compound 39]
GI50 (LNCaP): 0.0279 µM | CC50 (LNCaP; [1]): 8.47 µM | IC (TGI) (LNCaP; [2]): 0.252 µM | GI50 (LoVo-Dox): 0.323 µM | CC50 (LoVo-Dox; [1]): 8.47 µM | IC (TGI) (LoVo-Dox; [2]): 1.81 µM | GI50 (A-549): 0.0464 µM | CC50 (A-549; [1]): 8.47 µM | IC (TGI) (A-549; [2]): 0.855 µM | GI50 (DU-145): 0.018 µM | CC50 (DU-145; [1]): 8.47 µM | IC (TGI) (DU-145; [2]): 0.142 µM | GI50 (PANC-1): 0.164 µM | CC50 (PANC-1; [1]): 8.47 µM | IC (TGI) (PANC-1; [2]): 8.47 µM | GI50 (SK-MEL-28): 0.0339 µM | CC50 (SK-MEL-28; [1]): 8.47 µM | IC (TGI) (SK-MEL-28; [2]): 0.295 µM | GI50 (SK-BR-3): 0.0545 µM | CC50 (SK-BR-3; [1]): 8.47 µM | IC (TGI) (SK-BR-3; [2]): 1.46 µM | GI50 (K-562): 0.0359 µM | CC50 (K-562; [1]): 8.47 µM | IC (TGI) (K-562; [2]): 1.08 µM | GI50 (IGROV-ET): 0.055 µM | CC50 (IGROV-ET; [1]): 8.47 µM | IC (TGI) (IGROV-ET; [2]): 0.369 µM | GI50 (IGROV): 0.0341 µM | CC50 (IGROV; [1]): 8.47 µM | IC (TGI) (IGROV; [2]): 0.931 µM | GI50 (HT-29): 3.04 µM | CC50 (HT-29; [1]): 8.47 µM | IC (TGI) (HT-29; [2]): 8.47 µM | GI50 (LoVo): 0.321 µM | CC50 (LoVo; [1]): 8.47 µM | IC (TGI) (LoVo; [2]): 2.53 µM | stimulation of DNA cleavage by topoisomerase I / inhibition of topoisomerase I (nicked DNA band) in DNA relaxation assay (human topoisomerase I): marked inhibition of topoisomerase I

COc1cc(-c2c3c4cc(OC)c(OC(=O)CCCCCN)cc4oc(=O)c3n3ccc4cc(OC(=O)CCCCCN)c(OC)cc4c23)ccc1OC(=O)CCCCCN [Compound 169]
GI50 (LNCaP): 0.0373 µM | CC50 (LNCaP; [3]): 1.24 µM | IC (TGI) (LNCaP; [4]): 0.183 µM | GI50 (LoVo-Dox): 0.258 µM | CC50 (LoVo-Dox; [3]): 1050 µM | IC (TGI) (LoVo-Dox; [4]): 0.922 µM | GI50 (A-549): 0.0646 µM | CC50 (A-549; [3]): 9.74 µM | IC (TGI) (A-549; [4]): 1.14 µM | GI50 (DU-145): 0.0151 µM | CC50 (DU-145; [3]): 0.0105 µM | IC (TGI) (DU-145; [4]): 0.0901 µM | GI50 (PANC-1): 0.152 µM | CC50 (PANC-1; [3]): 10.5 µM | IC (TGI) (PANC-1; [4]): 10.5 µM | GI50 (SK-MEL-28): 0.0464 µM | CC50 (SK-MEL-28; [3]): 10.5 µM | IC (TGI) (SK-MEL-28; [4]): 0.529 µM | GI50 (SK-BR-3): 0.0387 µM | CC50 (SK-BR-3; [3]): 10.5 µM | IC (TGI) (SK-BR-3; [4]): 0.132 µM | GI50 (K-562): 0.068 µM | CC50 (K-562; [3]): 10.5 µM | IC (TGI) (K-562; [4]): 3.21 µM | GI50 (IGROV-ET): 0.0418 µM | CC50 (IGROV-ET; [3]): 10.5 µM | IC (TGI) (IGROV-ET; [4]): 0.301 µM | GI50 (IGROV): 0.0471 µM | CC50 (IGROV; [3]): 10.5 µM | IC (TGI) (IGROV; [4]): 1.92 µM | GI50 (HT-29): 2.97 µM | CC50 (HT-29; [3]): 10.5 µM | IC (TGI) (HT-29; [4]): 10.5 µM | GI50 (LoVo): 0.159 µM | CC50 (LoVo; [3]): 1.42 µM | IC (TGI) (LoVo; [4]): 0.418 µM | stimulation of DNA cleavage by topoisomerase I, concentration-dependent measurements compared with LAM-D (3) (human topoisomerase I; dose-response analysis): equally efficient to (3) | stimulation of DNA cleavage by topoisomerase I / inhibition of topoisomerase I (nicked DNA band) in DNA relaxation assay (human topoisomerase I): inhibit topoisomerase I
